Consider five compounds from patent US20070293512A1, “Condensed Pyrimidine Deriviative and Xanthine Oxidase Inhibitor” (priority 2004, published 2007).

T1 sequence (P80457 whole entry): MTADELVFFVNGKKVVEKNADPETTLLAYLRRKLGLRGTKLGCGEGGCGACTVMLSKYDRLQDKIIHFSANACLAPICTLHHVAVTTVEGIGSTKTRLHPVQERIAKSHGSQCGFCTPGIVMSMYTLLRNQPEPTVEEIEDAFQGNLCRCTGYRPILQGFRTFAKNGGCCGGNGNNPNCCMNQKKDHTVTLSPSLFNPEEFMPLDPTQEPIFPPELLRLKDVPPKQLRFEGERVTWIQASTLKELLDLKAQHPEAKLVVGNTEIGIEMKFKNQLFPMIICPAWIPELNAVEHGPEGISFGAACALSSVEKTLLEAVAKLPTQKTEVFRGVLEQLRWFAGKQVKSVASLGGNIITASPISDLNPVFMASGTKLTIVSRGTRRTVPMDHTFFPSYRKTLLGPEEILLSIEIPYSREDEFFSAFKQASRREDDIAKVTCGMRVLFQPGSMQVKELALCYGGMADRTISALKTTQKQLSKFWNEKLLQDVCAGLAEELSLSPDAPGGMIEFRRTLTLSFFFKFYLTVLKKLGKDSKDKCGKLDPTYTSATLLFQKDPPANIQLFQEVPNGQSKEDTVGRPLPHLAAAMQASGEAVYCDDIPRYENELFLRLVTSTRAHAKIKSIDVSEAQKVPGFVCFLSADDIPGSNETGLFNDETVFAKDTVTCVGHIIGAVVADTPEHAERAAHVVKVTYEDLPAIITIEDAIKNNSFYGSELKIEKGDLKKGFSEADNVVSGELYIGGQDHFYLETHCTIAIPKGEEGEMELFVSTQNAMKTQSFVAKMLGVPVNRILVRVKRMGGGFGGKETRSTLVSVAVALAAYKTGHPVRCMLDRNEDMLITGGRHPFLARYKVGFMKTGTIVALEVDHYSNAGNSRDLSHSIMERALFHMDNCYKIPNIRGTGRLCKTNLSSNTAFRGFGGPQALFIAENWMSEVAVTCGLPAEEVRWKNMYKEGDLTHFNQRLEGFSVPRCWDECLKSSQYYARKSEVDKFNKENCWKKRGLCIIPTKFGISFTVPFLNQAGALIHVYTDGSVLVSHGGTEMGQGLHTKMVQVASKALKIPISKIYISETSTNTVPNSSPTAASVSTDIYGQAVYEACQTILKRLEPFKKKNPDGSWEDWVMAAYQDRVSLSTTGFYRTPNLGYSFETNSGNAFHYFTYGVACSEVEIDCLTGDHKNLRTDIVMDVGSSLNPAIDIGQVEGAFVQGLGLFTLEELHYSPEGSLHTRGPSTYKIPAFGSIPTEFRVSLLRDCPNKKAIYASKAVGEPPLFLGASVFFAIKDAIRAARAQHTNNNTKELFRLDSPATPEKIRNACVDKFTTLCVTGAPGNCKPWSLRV

One data set addresses T1, Cow milk Xanthine Oxidase (Bos taurus, UniProt P80457).
T1 construct: Cow milk Xanthine Oxidase (Roche); purchased Roche; host or cells: cow milk (natural source)
The data set can be described thus: Xanthine oxidase inhibition, in vitro (oxidation of xanthine, absorbance at 290 nm). The data set is classed as biochemical. To be noted: xanthine 250 μM, 50 mM phosphate buffer pH 7.5, 30° C., 10 minutes. The protocol:
The xanthine oxidase inhibiting action (in vitro test) of the compound of the invention was confirmed by measuring inhibition of oxidation of xanthine by xanthine oxidase, as described in Example 50. As is clear from Tables 11 and 12, the compounds of the invention show excellent xanthine oxidase inhibiting action.
Pharmacological Experiment 1 (In Vitro Measuring Method)
1. Preparation of Test Sample
The test compound was dissolved in dimethylsulfoxide and diluted with 50 mM phosphate buffer (pH 7.5), to give a solution of a predetermined concentration.
125 μL of each of the solutions of the test compound having different concentrations was added to 1 mL of a solution of Xanthine (SIGMA, 250 μM) in the 50 mM phosphor buffer (pH 7.5). The mixture was then pre-incubated at 30° C. for 5 min. Subsequently, to the pre-incubated mixture was added 125 μL of Cow milk Xanthine Oxidase (Roche) diluted with the 50 mM phosphate buffer (pH 7.5) to 70 mU/mL, and the mixture was subjected to reaction at 30° C. for 10 minutes. Then, 1N hydrochloric acid, (200 μL) was added to the reaction mixture to terminate the reaction. Subsequently, absorbance at OD 290 nm was measured by means of a spectrophotometer (Shimadzu UV-160A)., to obtain a inhibition ratio. The measured inhibition ration was used to obtain […]
The inhibition ratio was calculated according to the following formula: Inhibition ratio (%)=[1−(B−C)/(A−C)]×100 • A: absorbance of control • B: absorbance measured on a sample containing test compound • C: absorbance of blank (Test Results)
Compound `O=[N+]([O-])c1cc(-c2nc3c(O)ncnc3s2)ccc1Oc1ccccc1` [Example 7, 4-Hydroxy-2-(3-nitro-4-phenoxyphenyl)-thiazolo[5,4-d]pyrimidine] displayed an IC50 of 8.8 nM.

Compound `O=[N+]([O-])c1cc(-c2nc3c(O)ncnc3s2)ccc1Oc1ccc(F)cc1` [Example 12, 2-[4-(4-Fluorophenoxy)-3-nitrophenyl]-4-hydroxythiazolo[5,4-d]pyrimidine] showed an IC50 of 9.3 nM.

Take `O=[N+]([O-])c1cc(-c2nc3c(O)ncnc3s2)ccc1Oc1ccccc1Cl` [Example 18, 2-[4-(2-Chlorophenoxy)-3-nitrophenyl]-4-hydroxythiazolo[5,4-d]pyrimidine]: the midpoint of inhibition, the IC50, lay at 8 nM.

As for `O=[N+]([O-])c1cc(-c2nc3c(O)ncnc3s2)ccc1Oc1cccc(F)c1` [Example 20, 2-[4-(3-Fluorophenoxy)-3-nitrophenyl]-4-hydroxythiazolo[5,4-d]pyrimidine], the IC50 was 10.2 nM.

`O=[N+]([O-])c1cc(-c2nc3c(O)ncnc3s2)ccc1Oc1cccnc1` [Example 32, 4-Hydroxy-2-[3-nitro-4-(3-pyridyloxy)-phenyl]thiazolo[5,4-d]pyrimidine] had a half-inhibitory concentration (IC50) of 9.2 nM.

System in a further data set: not given
Test: not given
Settings: not given
With `O=[N+]([O-])c1cc(-c2nc3c(O)ncnc3s2)ccc1Oc1ccccc1` [Example 7, 4-Hydroxy-2-(3-nitro-4-phenoxyphenyl)-thiazolo[5,4-d]pyrimidine], the melting point is 278 to 281 °C (dec.).

For the compound `O=[N+]([O-])c1cc(-c2nc3c(O)ncnc3s2)ccc1Oc1ccc(F)cc1` [Example 12, 2-[4-(4-Fluorophenoxy)-3-nitrophenyl]-4-hydroxythiazolo[5,4-d]pyrimidine], the melting point is 282 to 284 °C (dec.).

Consider `O=[N+]([O-])c1cc(-c2nc3c(O)ncnc3s2)ccc1Oc1ccccc1Cl` [Example 18, 2-[4-(2-Chlorophenoxy)-3-nitrophenyl]-4-hydroxythiazolo[5,4-d]pyrimidine], for which the melting point was 283 to 288 °C (dec.).

Turning to `O=[N+]([O-])c1cc(-c2nc3c(O)ncnc3s2)ccc1Oc1cccc(F)c1` [Example 20, 2-[4-(3-Fluorophenoxy)-3-nitrophenyl]-4-hydroxythiazolo[5,4-d]pyrimidine], the melting point is 279 to 281 °C (dec.).

Turning to `O=[N+]([O-])c1cc(-c2nc3c(O)ncnc3s2)ccc1Oc1cccnc1` [Example 32, 4-Hydroxy-2-[3-nitro-4-(3-pyridyloxy)-phenyl]thiazolo[5,4-d]pyrimidine], the melting point was 276 to 280 °C (dec.).

As a reminder, the IC50 is the concentration needed to halve the response being measured. Read a low IC50 as greater potency. One may read the melting point as the temperature of the solid-liquid transition.
